According to patent publication US20250262222A1, “HETEROCYCLIC COMPOUNDS, COMPOSITIONS THEREOF, AND METHODS OF TREATMENT THEREWITH” (BeiGene Switzerland GmbH, priority 2022, published 2025):

Experiments:
[1] = test system: pERK1/2(THR202/TYR204) level in SW620 cell line; assay: KRAS G12V pERK assay; assay type: cell-based; details: Homo sapiens, SW-620; SW620 cells, 2 hrs compound treatment, HTRF
Experimental: (§1) SW620 cell line was used in this study. Cells were maintained in RPMI 1640 supplemented with 10% fetal bovine serum (Thermo Fisher), 50 units/mL penicillin and streptomycin (Thermo Fisher) and kept at 37° C. in a humidified atmosphere of 5% CO2 in air. Cells were reinstated from frozen stocks that were laid down within 30 passages from the original cells purchased. 40000 cells per well were seeded into a 96-well plate and incubated overnight. Cells were treated with a 10-point dilution series. The final compound concentration is from 0 to 10 μM. After 2 hrs compound treatment, cells were lysed, and the pERK1/2(THR202/TYR204) level in the cell lysates was detected by HTRF kit (Cisbio). In brief, a total of 16 μL of cell lysate from each well of a 96-well plate was transferred to a 384-well white assay plate. Lysate from each well was incubated with 2 μL of Eu3+-cryptate (donor) labeled anti-phospho-ERK1/2 and 2 μL of D2 (acceptor) labeled anti-phospho-ERK1/2 antibodies (Cisbio) overnight in dark at room temperature. When donor and acceptor are in close proximity, excitation of the donor with laser triggers a Fluorescence Resonance Energy Transfer (FRET) towards the acceptor, which in turn fluoresces at 655 nm wavelength. FRET signals were measured using a PHERAstar FSX reader (BMG Labtech). IC50 determination was performed by fitting the curve of percent inhibition versus the log of the inhibitor concentration using Dotmatics.

[2] = test system: pERK1/2(THR202/TYR204) level in AsPC-1 cell line; assay: KRAS G12D pERK assay; assay type: cell-based; details: Homo sapiens, ASPC1, 2 h, AsPC-1 cells, 2 h compound treatment, HTRF
Experimental: as §1, with “AsPC-1” for “SW620”, “RPMI-1640” for “RPMI 1640”, “30000” for “40000”, “h” for “hrs”

| Compound | IC50 [1] [nM] | IC50 [2] [nM] |
| --- | --- | --- |
| Nc1cc(Cl)c(C(F)(F)F)c(-c2nc3c4c(nc(OC[C@@]56CCCN5C[C@H](F)C6)nc4c2F)N2CCOC[C@H]2CO3)c1 [Example 3, 3-chloro-5-((S)-1-fluoro-11-(((2R,7aS)-2-fluorotetrahydro-1H-pyrrolizin-7a(5H)-yl)methoxy)-5a,6,8,9-tetrahydro-5H-4,7-dioxa-3,9a,10,12-tetraazabenzo[4,5]cyclohepta[1,2,3-de]naphthalen-2-yl)-4-(trifluoromethyl)aniline] | 133 |  |
| C#Cc1c(F)ccc2cc(O)cc(-c3cc4c5c(nc(OC[C@@]67CCCN6C[C@H](F)C7)nc5c3F)N3CCOC[C@H]3CO4)c12 [Example 2, 5-ethynyl-6-fluoro-4-((S)-4-fluoro-2-(((2R,7aS)-2-fluorotetrahydro-1H-pyrrolizin-7a(5H)-yl)methoxy)-8a,9,11,12-tetrahydro-8H-[1,4]oxazino[3′,4′:3,4][1,4]oxazepino[5,6,7-de]quinazolin-5-yl)naphthalen-2-ol] | 178 |  |
| CCc1c(F)ccc2cc(O)cc(-c3nc4c5c(nc(OC[C@@]67CCCN6C[C@H](F)C7)nc5c3F)N3CCOC[C@H]3CO4)c12 [Example 5, 5-ethyl-6-fluoro-4-((S)-1-fluoro-11-(((2R,7aS)-2-fluorotetrahydro-1H-pyrrolizin-7a(5H)-yl)methoxy)-5a,6,8,9-tetrahydro-5H-4,7-dioxa-3,9a,10,12-tetraazabenzo[4,5]cyclohepta[1,2,3-de]naphthalen-2-yl)naphthalen-2-ol] | 22 |  |
| Oc1cc(Cl)c(C2CC2)c(-c2nc3c4c(nc(OC[C@@]56CCCN5C[C@H](F)C6)nc4c2F)N2CCOC[C@H]2CO3)c1 [Example 6, 3-chloro-4-cyclopropyl-5-((S)-1-fluoro-11-(((2R,7aS)-2-fluorotetrahydro-1H-pyrrolizin-7a(5H)-yl)methoxy)-5a,6,8,9-tetrahydro-5H-4,7-dioxa-3,9a,10,12-tetraazabenzo[4,5]cyclohepta[1,2,3-de]naphthalen-2-yl)phenol] | 118 |  |
| C#Cc1c(F)ccc2cc(O)cc(-c3nc4c5c(nc(OC[C@@]67CCCN6C[C@H](F)C7)nc5c3F)N3CCCOC[C@H]3CO4)c12 [Example 20, 5-ethynyl-6-fluoro-4-((S)-1-fluoro-12-(((2R,7aS)-2-fluorotetrahydro-1H-pyrrolizin-7a(5H)-yl)methoxy)-5a,6,9,10-tetrahydro-5H,8H-4,7-dioxa-3,10a,11,13-tetraazanaphtho[1,8-ab]heptalen-2-yl)naphthalen-2-ol] | 1.3 |  |
| C#Cc1c(F)ccc2cc(O)cc(-c3nc4c5c(nc(OCC6(CN7CCOCC7)CC6)nc5c3F)N3CCOC[C@H]3CO4)c12 [Example 8, (S)-5-ethynyl-6-fluoro-4-(1-fluoro-11-((1-(morpholinomethyl)cyclopropyl)methoxy)-5a,6,8,9-tetrahydro-5H-4,7-dioxa-3,9a,10,12-tetraazabenzo[4,5]cyclohepta[1,2,3-de]naphthalen-2-yl)naphthalen-2-ol] | 43 |  |
| C#Cc1c(F)ccc2cc(O)cc(-c3nc4c5c(nc(OC[C@@]67CCCN6C[C@H](F)C7)nc5c3F)N3CC5CCC(N5)C3CO4)c12 (stereo partly drawn) [Example 11, 5-ethynyl-6-fluoro-4-(1-fluoro-12-(((2R,7aS)-2-fluorotetrahydro-1H-pyrrolizin-7a(5H)-yl)methoxy)-5a,6,7,8,9,10-hexahydro-5H-4-oxa-3,10a,11,13,14-pentaaza-6,9-methanonaphtho[1,8-ab]heptalen-2-yl)naphthalen-2-ol] |  | 30 |
| CC12CCC(COc3nc4c5c(nc(-c6cc(N)cc(Cl)c6C(F)(F)F)c(F)c5n3)OCC[C@@H]3[C@@H]5CC[C@H](CN43)N5)(CO1)C2 [Example 36, 3-chloro-5-((6aR,7S,10R)-1-fluoro-13-((1-methyl-2-oxabicyclo[2.2.1]heptan-4-yl)methoxy)-5,6,6a,7,8,9,10,11-octahydro-4-oxa-3,11a,12,14,15-pentaaza-7,10-methanocyclohepta[4,5]cyclo-octa[1,2,3-de]naphthalen-2-yl)-4-(trifluoromethyl)aniline] |  | 106 |
| Cc1cc(N)cc(-c2nc3c4c(nc(OCC56COC(C)(C5)C6)nc4c2F)N2C[C@H]4CC[C@H](N4)[C@H]2CCO3)c1C(F)(F)F [Example 28, 3-((6aR,7S,10R)-1-fluoro-13-((1-methyl-2-oxabicyclo[2.1.1]hexan-4-yl)methoxy)-5,6,6a,7,8,9,10,11-octahydro-4-oxa-3,11a,12,14,15-pentaaza-7,10-methanocyclohepta[4,5]cyclo-octa[1,2,3-de]naphthalen-2-yl)-5-methyl-4-(trifluoromethyl)aniline] |  | 152 |
| Nc1cc(Cl)c(C(F)(F)F)c(-c2nc3c4c(nc(OCC56COCC(F)(C5)C6)nc4c2F)N2C[C@H]4CC[C@H](N4)[C@H]2CCO3)c1 [Example 37, 3-chloro-5-((6aR,7S,10R)-1-fluoro-13-((5-fluoro-3-oxabicyclo[3.1.1]heptan-1-yl)methoxy)-5,6,6a,7,8,9,10,11-octahydro-4-oxa-3,11a,12,14,15-pentaaza-7,10-methanocyclohepta[4,5]cyclo-octa[1,2,3-de]naphthalen-2-yl)-4-(trifluoromethyl)aniline] |  | 97 |
| CC12CC(COc3nc4c5c(nc(-c6cc(N)cc(Cl)c6C(F)(F)F)c(F)c5n3)OCC[C@@H]3[C@@H]5CC[C@H](CN43)N5)(CO1)C2 [Example 34, 3-chloro-5-((6aR,7S,10R)-1-fluoro-13-((1-methyl-2-oxabicyclo[2.1.1]hexan-4-yl)methoxy)-5,6,6a,7,8,9,10,11-octahydro-4-oxa-3,11a,12,14,15-pentaaza-7,10-methanocyclohepta[4,5]cyclo-octa[1,2,3-de]naphthalen-2-yl)-4-(trifluoromethyl)aniline] |  | 82 |
| Nc1cc(Cl)c(C(F)(F)F)c(-c2nc3c4c(nc(OCC56CCC(COC5)C6)nc4c2F)N2C[C@H]4CC[C@H](N4)[C@H]2CCO3)c1 [Example 45, 3-((6aR,7S,10R)-13-((3-oxabicyclo[3.2.1]octan-1-yl)methoxy)-1-fluoro-5,6,6a,7,8,9,10,11-octahydro-4-oxa-3,11a,12,14,15-pentaaza-7,10-methanocyclohepta[4,5]cyclo-octa[1,2,3-de]naphthalen-2-yl)-5-chloro-4-(trifluoromethyl)aniline] |  | 221 |

Continued, in another order:

| IC50 [1] [nM] | Compound | IC50 [2] [nM] |
| --- | --- | --- |
| 83 | N#Cc1c(N)sc2c(F)ccc(-c3c(Cl)c4c5c(nc(OC[C@@]67CCCN6C[C@H](F)C7)nc5c3F)N3C5CCC3(COC5)CO4)c12 (stereo partly drawn) [Example 15, 2-amino-4-(11-chloro-9-fluoro-7-(((2R,7aS)-2-fluorotetrahydro-1H-pyrrolizin-7a(5H)-yl)methoxy)-3,4-dihydro-1H,13H-4,13a-ethano[1,4]oxazino[3′,4′:3,4][1,4]oxazepino[5,6,7-de]quinazolin-10-yl)-7-fluorobenzo[b]thiophene-3-carbonitrile] |  |
| 33 | N#Cc1c(N)sc2c(F)ccc(-c3c(Cl)c4c5c(nc(OC[C@@]67CCCN6C[C@H](F)C7)nc5c3F)N3CCOC[C@H]3CO4)c12 (single isomer, unassigned) [Example 14-Isomer 2] |  |
| 161 | N#Cc1c(N)sc2c(F)ccc(-c3cc4c5c(nc(OC[C@@]67CCCN6C[C@H](F)C7)nc5c3F)N3CCOC[C@H]3CO4)c12 [Example 1, 2-amino-7-fluoro-4-((S)-4-fluoro-2-(((2R,7aS)-2-fluorotetrahydro-1H-pyrrolizin-7a(5H)-yl)methoxy)-8a,9,11,12-tetrahydro-8H-[1,4]oxazino[3′,4′:3,4][1,4]oxazepino[5,6,7-de]quinazolin-5-yl)benzo[b]thiophene-3-carbonitrile] |  |
| 30 | N#Cc1c(N)sc2c(F)ccc(-c3c(Cl)c4c5c(nc(OC[C@@]67CCCN6C[C@H](F)C7)nc5c3F)N3CCOC[C@@H]3CCO4)c12 [Example 18] |  |
| 74 | Nc1cc(Cl)c(C(F)(F)F)c(-c2nc3c4c(nc(OC[C@@]56CCCN5C[C@H](F)C6)nc4c2F)N2CCOCCC2CO3)c1 (stereo partly drawn) [Example 21, 3-chloro-5-(1-fluoro-12-(((2R,7aS)-2-fluorotetrahydro-1H-pyrrolizin-7a(5H)-yl)methoxy)-5,5a,6,7,9,10-hexahydro-4,8-dioxa-3,10a,11,13-tetraazanaphtho[1,8-ab]heptalen-2-yl)-4-(trifluoromethyl)aniline] |  |
